Values of other authors, collected in patent publication US5331009A, “Pharmaceutical compositions for treating adrenoleukodystrophy” (Croda International plc, priority 1988, dated 1994).

Test system: ALD patients

Compound | C26:0 body levels (very long chain fatty acids omitted from diet, glyceryl trioleate used alone) | therapeutic benefit of administration to ALD patients (Rizzo, Neurology 36 (1986) 357, Moser, Ann. Neurol. 21, 1987)
CCCCCCCC/C=C\CCCCCCCC(=O)OCC(COC(=O)CCCCCCC/C=C\CCCCCCCC)OC(=O)CCCCCCC/C=C\CCCCCCCC [glyceryl trioleate] | reductions can occur | 
CCCCCCCC/C=C\CCCCCCCC(=O)O [oleic acid (C18:1), oleic acid] |  | generally therapeutically advantageous
